The results in this text go back to patent publication US20260356851A1, “TRICYCLIC COMPOUNDS AND USES THEREOF” (HUTCHMED LIMITED, priority 2023, published 2026).

By IC50 is commonly meant the concentration that inhibits the measured activity by half.

Common to all, as to assay type: cell-based
Experiment [1] concerns the target T1, pERK1/2 (Thr202/Tyr204), NCI-1H358 (KRAS G12C) (Homo sapiens, UniProt P01116, G12C).
T1 construct: pERK1/2 HTRF read-out
The experiment is described as follows: Assay of intracellular pERK1/2 (Thr202/Tyr204) phosphorylation in NCI-H358 cells (KRAS G12C). To be noted: pERK1/2, 2 days, read-out: NCI-H358 (KRAS G12C) IC50. The essentials: (§1)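 Cells (10000-12000/well) exposed to 3-fold compound dilutions for 2 days at 37 °C, then lysed; pERK1/2 (Thr202/Tyr204) measured by HTRF with d2 and cryptate antibodies, 665/615 nm ratio.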

The target of experiment [2] is T2, pERK1/2 (Thr202/Tyr204), PANC-1 (KRAS G121D) (Homo sapiens, UniProt P01116, G12D).
T2 construct: pERK1/2 HTRF read-out
T2 sequence (P01116 1-188 isoform P01116-2 G12D): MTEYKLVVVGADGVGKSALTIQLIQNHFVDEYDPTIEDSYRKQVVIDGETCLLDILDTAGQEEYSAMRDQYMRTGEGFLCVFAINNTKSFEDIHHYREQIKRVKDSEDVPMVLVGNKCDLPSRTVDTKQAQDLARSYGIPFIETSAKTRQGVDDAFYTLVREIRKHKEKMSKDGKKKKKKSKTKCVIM
The experiment is described as follows: Assay of intracellular pERK1/2 (Thr202/Tyr204) phosphorylation in PANC-1 cells (KRAS G12D). The conditions noted are these: pERK1/2, 2 days, read-out: PANC-1 (KRAS G12D) IC50. In short, it runs like this:
as §1

Experiment [3] has as its target T3, pERK1/2 (Thr202/Tyr204), NCI-1H441 (KRAS G12V) (Homo sapiens, UniProt P01116, G12V).
T3 construct: pERK1/2 HTRF read-out
The experiment in a line: Assay of intracellular pERK1/2 (Thr202/Tyr204) phosphorylation in NCI-H441 cells (KRAS G12V). To be noted: pERK1/2, 2 days, read-out: NCI-H441 (KRAS G12V) IC50. In short, it runs like this:
as §1

T1 sequence (P01116 1-188 isoform P01116-2 G12C): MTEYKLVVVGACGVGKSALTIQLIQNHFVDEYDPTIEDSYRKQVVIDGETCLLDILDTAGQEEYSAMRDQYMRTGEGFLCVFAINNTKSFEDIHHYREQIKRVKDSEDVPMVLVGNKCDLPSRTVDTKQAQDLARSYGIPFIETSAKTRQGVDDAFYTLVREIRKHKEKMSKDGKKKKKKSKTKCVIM
T3 sequence (P01116 1-188 isoform P01116-2 G12V): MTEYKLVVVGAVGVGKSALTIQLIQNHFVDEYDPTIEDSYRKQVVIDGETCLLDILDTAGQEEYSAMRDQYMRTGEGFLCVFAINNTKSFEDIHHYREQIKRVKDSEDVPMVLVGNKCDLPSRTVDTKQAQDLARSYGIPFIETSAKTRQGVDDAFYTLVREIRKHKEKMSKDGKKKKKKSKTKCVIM

For `[2H][C@@]1(F)CN2CCC[C@@]2(COc2nc3c4c(nc(-c5cc(N)c(F)c(C)c5C(F)(F)F)c(F)c4n2)OCCN3C(C)c2cccnc2N)C1` (single isomer, unassigned) [Compound 169, (*)3-(1-(5-(5-amino-4-fluoro-3-methyl-2-(trifluoromethyl)phenyl)-4-fluoro-2-(((2S or 2R,7aS)-2-fluorotetrahydro-1H-pyrrolizin-7a(5H)-yl-2-d)methoxy)-8,9-dihydro-1OH-7-oxa-1,3,6,10-tetraazacyclohepta[de]naphthalen-10-yl)ethyl)pyridin-2-amine], the IC50 was 0.7 nM in experiment [1], 17 nM in experiment [2] and 2 nM in experiment [3].
In the same order, the values of `[2H][C@]1(F)CN2CCC[C@@]2(COc2nc3c4c(nc(-c5cc(N)c(F)c(C)c5C(F)(F)F)c(F)c4n2)OCCN3C(C)c2cccnc2N)C1` (single isomer, unassigned) [Compound 170, (*)3-(1-(5-(5-amino-4-fluoro-3-methyl-2-(trifluoromethyl)phenyl)-4-fluoro-2-(((2S or 2R,7aS)-2-fluorotetrahydro-1H-pyrrolizin-7a(5H)-yl-2-d)methoxy)-8,9-dihydro-1OH-7-oxa-1,3,6,10-tetraazacyclohepta[de]naphthalen-10-yl)ethyl)pyridin-2-amine] are 0.2 nM, 2 nM and 0.5 nM.
`[2H]C1([2H])CN(C(C)c2cccnc2N)c2nc(OC[C@@]34CCCN3C[C@H](F)C4)nc3c(F)c(-c4cc(N)c(F)c(C)c4C(F)(F)F)nc(c23)O1` (single isomer, unassigned) [Compound 183, 3-((R or S)-1-(5-(5-amino-4-fluoro-3-methyl-2-(trifluoromethyl)phenyl)-4-fluoro-2-(((2R,7aS)-2-fluorotetrahydro-1H-pyrrolizin-7a(5H)-yl)methoxy)-8,9-dihydro-10H-7-oxa-1,3,6,10-tetraazacyclohepta[de]naphthalen-10-yl-8,8-d2)ethyl)pyridin-2-amine]: the values for the IC50 in experiment [1], in experiment [2] and in experiment [3] were 0.1 nM, 1 nM and 0.3 nM, respectively.
The matching figures for `[2H]C1([2H])CN(C(C)c2cccnc2N)c2nc(OC[C@@]34CCCN3C[C@H](F)C4)nc3c(F)c(-c4cc(N)c(F)c(C)c4C(F)(F)F)nc(c23)O1` (single isomer, unassigned) [Compound 184, 3-((R or S)-1-(5-(5-amino-4-fluoro-3-methyl-2-(trifluoromethyl)phenyl)-4-fluoro-2-(((2R,7aS)-2-fluorotetrahydro-1H-pyrrolizin-7a(5H)-yl)methoxy)-8,9-dihydro-10H-7-oxa-1,3,6,10-tetraazacyclohepta[de]naphthalen-10-yl-8,8-d2)ethyl)pyridin-2-amine]: 5 nM, 28 nM and 13 nM.
The matching figures for `[2H]C1([2H])Oc2nc(-c3cc(N)c(F)c(C)c3C(F)(F)F)c(F)c3nc(OC[C@@]45CCCN4C[C@H](F)C5)nc(c23)N(C(C)c2cccnc2N)C1([2H])[2H]` (single isomer, unassigned) [Compound 199, 3-((R or S)-1-(5-(5-amino-4-fluoro-3-methyl-2-(trifluoromethyl)phenyl)-4-fluoro-2-(((2R,7aS)-2-fluorotetrahydro-1H-pyrrolizin-7a(5H)-yl)methoxy)-8,9-dihydro-10H-7-oxa-1,3,6,10-tetraazacyclohepta[de]naphthalen-10-yl-8,8,9,9-d4)ethyl)pyridin-2-amine]: 0.2 nM, 1 nM and 0.2 nM.
In the same order, the values of `[2H]C1([2H])Oc2nc(-c3cc(N)c(F)c(C)c3C(F)(F)F)c(F)c3nc(OC[C@@]45CCCN4C[C@H](F)C5)nc(c23)N(C(C)c2cccnc2N)C1([2H])[2H]` (single isomer, unassigned) [Compound 200, 3-((R or S)-1-(5-(5-amino-4-fluoro-3-methyl-2-(trifluoromethyl)phenyl)-4-fluoro-2-(((2R,7aS)-2-fluorotetrahydro-1H-pyrrolizin-7a(5H)-yl)methoxy)-8,9-dihydro-10H-7-oxa-1,3,6,10-tetraazacyclohepta[de]naphthalen-10-yl-8,8,9,9-d4)ethyl)pyridin-2-amine] are 7 nM, 63 nM and 10 nM.
Regarding `[2H]C1([2H])Oc2nc(-c3cc(N)c(F)c(C)c3C(F)(F)F)c(F)c3nc(OC[C@@H]4C[C@@H](F)CN4C)nc(c23)N(C(C)c2cccnc2N)C1([2H])[2H]` (single isomer, unassigned) [Compound 202, 3-((R or S)-1-(5-(5-amino-4-fluoro-3-methyl-2-(trifluoromethyl)phenyl)-4-fluoro-2-(((2S,4R)-4-fluoro-1-methylpyrrolidin-2-yl)methoxy)-8,9-dihydro-10H-7-oxa-1,3,6,10-tetraazacyclohepta[de]naphthalen-10-yl-8,8,9,9-d4)ethyl)pyridin-2-amine], the IC50 in experiment [1] came out at 0.4 nM; in experiment [2], 13 nM; in experiment [3], 1 nM.
With `[2H]C1([2H])Oc2nc(-c3cc(N)c(F)c(C)c3C(F)(F)F)c(F)c3nc(OC[C@@H]4C[C@@H](F)CN4C)nc(c23)N(C(C)c2cccnc2N)C1([2H])[2H]` (single isomer, unassigned) [Compound 203, 3-((R or S)-1-(5-(5-amino-4-fluoro-3-methyl-2-(trifluoromethyl)phenyl)-4-fluoro-2-(((2S,4R)-4-fluoro-1-methylpyrrolidin-2-yl)methoxy)-8,9-dihydro-10H-7-oxa-1,3,6,10-tetraazacyclohepta[de]naphthalen-10-yl-8,8,9,9-d4)ethyl)pyridin-2-amine], the IC50 in experiment [1] is 88 nM; in experiment [2], greater than 100 nM; in experiment [3], greater than 100 nM.
In the case of `[2H]C1([2H])Oc2nc(-c3cc(N)c(F)c(Cl)c3C(F)(F)F)c(F)c3nc(OC[C@@]45CCCN4C[C@H](F)C5)nc(c23)N(C(C)c2cccnc2N)C1([2H])[2H]` (single isomer, unassigned) [Compound 206, 3-((R or S)-1-(5-(5-amino-3-chloro-4-fluoro-2-(trifluoromethyl)phenyl)-4-fluoro-2-(((2R,7aS)-2-fluorotetrahydro-1H-pyrrolizin-7a(5H)-yl)methoxy)-8,9-dihydro-10H-7-oxa-1,3,6,10-tetraazacyclohepta[de]naphthalen-10-yl-8,8,9,9-d4)ethyl)pyridin-2-amine], the IC50 in experiment [1] stood at 0.2 nM; in experiment [2] it was 0.8 nM; in experiment [3] it was 0.3 nM.
In the same order, the values of `[2H]C1([2H])Oc2nc(-c3cc(N)c(F)c(Cl)c3C(F)(F)F)c(F)c3nc(OC[C@@]45CCCN4C[C@H](F)C5)nc(c23)N(C(C)c2cccnc2N)C1([2H])[2H]` (single isomer, unassigned) [Compound 207, 3-((R or S)-1-(5-(5-amino-3-chloro-4-fluoro-2-(trifluoromethyl)phenyl)-4-fluoro-2-(((2R,7aS)-2-fluorotetrahydro-1H-pyrrolizin-7a(5H)-yl)methoxy)-8,9-dihydro-10H-7-oxa-1,3,6,10-tetraazacyclohepta[de]naphthalen-10-yl-8,8,9,9-d4)ethyl)pyridin-2-amine] are 9 nM, greater than 100 nM and 33 nM.
